Organism: Rattus norvegicus
Assay: DrugMatrix - Regimen: Daily Repeat
Assay type: toxicity, organism-based, Sprague-Dawley
Parameters: regimen Daily Repeat, gender Male, age 6-8 weeks
Conditions: in vivo, po, route oral GAVAGE, […]; for ABSOLUTE BASOPHIL / ABSOLUTE EOSINOPHIL / ABSOLUTE LYMPHOCYTE / ABSOLUTE MONOCYTE / ABSOLUTE SEGMENTED NEUTROPHIL / BASOPHIL / EOSINOPHIL / ERYTHROCYTE COUNT / HEMATOCRIT / HEMOGLOBIN / LEUKOCYTE COUNT / LYMPHOCYTE / MEAN CORPUSCULAR HEMOGLOBIN / MEAN CORPUSCULAR HEMOGLOBIN CONCENTRATION / MEAN CORPUSCULAR VOLUME / MONOCYTE / NEUTROPHIL / NUCLEATED RED BLOOD CELLS / PLATELET COUNT: tissue Blood; for ALANINE AMINOTRANSFERASE / ALBUMIN / ALKALINE PHOSPHATASE / ASPARTATE AMINOTRANSFERASE / BLOOD UREA NITROGEN / CARBON DIOXIDE / CHLORIDE / CHOLESTEROL / CREATINE PHOSPHOKINASE / CREATININE / GLUCOSE / LACTATE DEHYDROGENASE / LIPASE / PHOSPHORUS / POTASSIUM / SODIUM / TOTAL BILIRUBIN / TOTAL PROTEIN / URIC ACID: tissue Plasma
[1] = 100 mg/kg, 120 h, dose level Low, time 5 day
[2] = 972 mg/kg, 72 h, dose level High, time 3 day
[3] = 972 mg/kg, 120 h, dose level High, time 5 day

CC(=O)Nc1ccc(O)cc1 [ACETAMINOPHEN]
ABSOLUTE BASOPHIL [1]: 0 CELLS/uL
ABSOLUTE EOSINOPHIL [1]: 65 CELLS/uL
ABSOLUTE LYMPHOCYTE [1]: 8879.67 CELLS/uL
ABSOLUTE MONOCYTE [1]: 40.33 CELLS/uL
ABSOLUTE SEGMENTED NEUTROPHIL [1]: 548.33 CELLS/uL
BASOPHIL [1]: 0%
EOSINOPHIL [1]: 0.67%
ERYTHROCYTE COUNT [1]: 5.47 x10E6/uL
HEMATOCRIT [1]: 34.53%
HEMOGLOBIN [1]: 13.27 G/DL
LEUKOCYTE COUNT [1]: 9.53 x10E3/uL
LYMPHOCYTE [1]: 93.67%
MEAN CORPUSCULAR HEMOGLOBIN [1]: 24.27 pg
MEAN CORPUSCULAR HEMOGLOBIN CONCENTRATION [1]: 38.43 G/DL
MEAN CORPUSCULAR VOLUME [1]: 63.13 fL
MONOCYTE [1]: 0.33%
NEUTROPHIL [1]: 5.33%
NUCLEATED RED BLOOD CELLS [1]: 0 /100WBC
PLATELET COUNT [1]: 1237.33 x10E3/uL
ALANINE AMINOTRANSFERASE [1]: 58.33 u/L
ALBUMIN [1]: 4.3 G/DL
ALKALINE PHOSPHATASE [1]: 341.67 u/L
ASPARTATE AMINOTRANSFERASE [1]: 84 u/L
BLOOD UREA NITROGEN [1]: 14 mg/dL
CARBON DIOXIDE [1]: 27.33 mmol/L
CHLORIDE [1]: 98.33 MEQ/L
CHOLESTEROL [1]: 81.33 mg/dL
CREATINE PHOSPHOKINASE [1]: 273 u/L
CREATININE [1]: 0.18 mg/dL
GLUCOSE [1]: 158.67 mg/dL
LACTATE DEHYDROGENASE [1]: 79.67 u/L
LIPASE [1]: 10 u/L
PHOSPHORUS [1]: 9.17 mg/dL
POTASSIUM [1]: 5.75 MEQ/L
SODIUM [1]: 143.87 MEQ/L
TOTAL BILIRUBIN [1]: 0.23 mg/dL
TOTAL PROTEIN [1]: 6.27 G/DL
URIC ACID [1]: 0.77 mg/dL
ABSOLUTE BASOPHIL [2]: 0 CELLS/uL
ABSOLUTE EOSINOPHIL [2]: 0 CELLS/uL
ABSOLUTE LYMPHOCYTE [2]: 8609 CELLS/uL
ABSOLUTE MONOCYTE [2]: 158.2 CELLS/uL
ABSOLUTE SEGMENTED NEUTROPHIL [2]: 1212.8 CELLS/uL
BASOPHIL [2]: 0%
EOSINOPHIL [2]: 0%
ERYTHROCYTE COUNT [2]: 5.94 x10E6/uL
HEMATOCRIT [2]: 36.4%
HEMOGLOBIN [2]: 13.62 G/DL
LEUKOCYTE COUNT [2]: 9.98 x10E3/uL
LYMPHOCYTE [2]: 85.6%
MEAN CORPUSCULAR HEMOGLOBIN [2]: 22.9 pg
MEAN CORPUSCULAR HEMOGLOBIN CONCENTRATION [2]: 37.44 G/DL
MEAN CORPUSCULAR VOLUME [2]: 61.28 fL
MONOCYTE [2]: 2%
NEUTROPHIL [2]: 12.4%
NUCLEATED RED BLOOD CELLS [2]: 0 /100WBC
PLATELET COUNT [2]: 1006.4 x10E3/uL
ALANINE AMINOTRANSFERASE [2]: 85 u/L
ALBUMIN [2]: 4.4 G/DL
ALKALINE PHOSPHATASE [2]: 536.6 u/L
ASPARTATE AMINOTRANSFERASE [2]: 123.8 u/L
BLOOD UREA NITROGEN [2]: 14 mg/dL
CARBON DIOXIDE [2]: 31.2 mmol/L
CHLORIDE [2]: 99.67 MEQ/L
CHOLESTEROL [2]: 76.2 mg/dL
CREATINE PHOSPHOKINASE [2]: 298.8 u/L
CREATININE [2]: 0.19 mg/dL
GLUCOSE [2]: 161 mg/dL
LACTATE DEHYDROGENASE [2]: 128 u/L
LIPASE [2]: 10.8 u/L
PHOSPHORUS [2]: 10.82 mg/dL
POTASSIUM [2]: 5.81 MEQ/L
SODIUM [2]: 143.6 MEQ/L
TOTAL BILIRUBIN [2]: 0.14 mg/dL
TOTAL PROTEIN [2]: 6.04 G/DL
URIC ACID [2]: 0.68 mg/dL
ABSOLUTE BASOPHIL [3]: 0 CELLS/uL
ABSOLUTE EOSINOPHIL [3]: 17.8 CELLS/uL
ABSOLUTE LYMPHOCYTE [3]: 10212.2 CELLS/uL
ABSOLUTE MONOCYTE [3]: 135.4 CELLS/uL
ABSOLUTE SEGMENTED NEUTROPHIL [3]: 1674.6 CELLS/uL
BASOPHIL [3]: 0%
EOSINOPHIL [3]: 0.2%
ERYTHROCYTE COUNT [3]: 6.63 x10E6/uL
HEMATOCRIT [3]: 40.4%
HEMOGLOBIN [3]: 14.86 G/DL
LEUKOCYTE COUNT [3]: 12.04 x10E3/uL
LYMPHOCYTE [3]: 85.2%
MEAN CORPUSCULAR HEMOGLOBIN [3]: 22.46 pg
MEAN CORPUSCULAR HEMOGLOBIN CONCENTRATION [3]: 36.82 G/DL
MEAN CORPUSCULAR VOLUME [3]: 61 fL
MONOCYTE [3]: 1.2%
NEUTROPHIL [3]: 13.4%
NUCLEATED RED BLOOD CELLS [3]: 0 /100WBC
PLATELET COUNT [3]: 1437.6 x10E3/uL
ALANINE AMINOTRANSFERASE [3]: 100 u/L
ALBUMIN [3]: 4.46 G/DL
ALKALINE PHOSPHATASE [3]: 485.6 u/L
ASPARTATE AMINOTRANSFERASE [3]: 108.4 u/L
BLOOD UREA NITROGEN [3]: 14.2 mg/dL
CARBON DIOXIDE [3]: 29 mmol/L
CHLORIDE [3]: 104 MEQ/L
CHOLESTEROL [3]: 71.6 mg/dL
CREATINE PHOSPHOKINASE [3]: 328.8 u/L
CREATININE [3]: 0.17 mg/dL
GLUCOSE [3]: 154 mg/dL
LACTATE DEHYDROGENASE [3]: 199.2 u/L
LIPASE [3]: 9.8 u/L
PHOSPHORUS [3]: 13.5 mg/dL
POTASSIUM [3]: 6.73 MEQ/L
SODIUM [3]: 144.74 MEQ/L
TOTAL BILIRUBIN [3]: 0.22 mg/dL
TOTAL PROTEIN [3]: 6.42 G/DL
URIC ACID [3]: 3.3 mg/dL
